# Where no end group is shown, it is not given here.
# Target: T1, NCBD (the [2066–2112]-fragment of CBP) (Mus musculus, UniProt P45481)
# T1 sequence (P45481 2066-2112): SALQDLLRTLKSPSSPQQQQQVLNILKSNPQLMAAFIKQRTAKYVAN
# Assay: Isothermal titration calorimetry
# Type: binding
sequence,measurement,value
EGQMDERALLEQLHQLLSNTDATGLEEIDRALGIPELVNQGQALEPK [[S1043M;D1050E;T1054Q]],Kd,0.188 µM
